Source: paper PMC7070709, “Design, Synthesis, and In Vitro Evaluation of Hydroxybenzimidazole-Donepezil Analogues as Multitarget-Directed Ligands for the Treatment of Alzheimer’s Disease” (Molecules, 2020)

Key:
[1] = Cu(II) chelation by potentiometry; type: physicochemical; conditions: pH 7.4; read-out: conditional dissociation constant (K´d) for the copper complex
Source text: The metal chelating ability of hybrids 7 and 12, due to the BIM bidentate unity with (N,O) coordination mode, was studied by potentiometry. Figure 3A,B show a change in the deprotonation profile of the ligand titration curves due to the presence of the metal ions. In fact, the curves for the Cu(II)/L systems lie well below that of the ligand, while for the Zn(II)/L systems stay under for a > −1 (compound 7) or a > 0 (compound 12), thus supporting the formation of 1:1 and 1:2 M/L ratio complexes with the deprotonated and mono-protonated forms of the ligand and with relative metal dependent stability order (Cu > Zn). Table 1 contains the equilibrium models obtained from the fitting analysis of the potentiometric curves by program Hyperquad. In these equilibrium models, which the coordination core of the compounds integrates the bidentate (N,O) BIM moiety, MHL and MH2L2 correspond to species with the ligand containing one protonated nitrogen atom at the piperazine moiety, ML and ML2 correspond to complexes involving the completely deprotonated form of the ligand while MH-1L2 are mixed ligand-hydroxo metal complexes.
Solutions: the aqueous copper (CuCl2, 0.015 M) and zinc (ZnCl2, 0.0156 M) stock solutions for potentiometric equilibrium studies were prepared from 1000 ppm standards (Titrisol) and their metal content was evaluated by atomic absorption. The titrant solution (0.1 M KOH) was obtained from a carbonate-free commercial concentrate (Titrisol) and standardized by potentiometric titration with potassium hydrogen phthalate. The titrant solution was discarded whenever the percentage of carbonate (Gran’s method) was about 0.5% of the total amount of base.
Measurements: compounds 7 and 12 were titrated in 50% (w/w) DMSO/H2O medium, at T = 25.0 ± 0.1 °C and ionic strength (I) 0.1 M KCl, using 0.1 M KOH as titrant. Both glass and Ag/AgCl reference electrodes were previously conditioned in DMSO/H2O mixtures with increasing amounts of DMSO and the response of the glass electrode was controlled by strong acid–strong base (HCl/KOH) calibrations with the determination of the Nernst parameters by Gran’s method. […] All titrations were performed in duplicate and under the stated experimental conditions the pKw value (13.6) was determined and subsequently used in the computations. The stepwise protonation constant of the ligand, Ki = [HiL]/([Hi–1L][H]), and the overall metal–complex stability constants, βMmHhLl = [MmHhLl]/([M]^m[H]^h[L]^l), were calculated by fitting the potentiometric titration data with Hyperquad 2008 [26]. The metal hydrolysis constants were determined under the defined experimental conditions (I = 0.1 M KCl, 50% w/w DMSO/H2O, T = 25.0 ± 0.1 °C) and the following values of stability constants were included in the fitting of experimental data towards the equilibrium models related to the Cu^2+/L and Zn^2+/L systems: log βCu2H−2 = −9.99; log βZnH−2 = −14.79, log βZnH−3 = −23.48. Species distribution curves were plotted with the Hyss program.

[2] = molecular target: T1, AChE (type VI-S, from electric eel) (Electrophorus electricus, UniProt O42275); conditions: read-out: TcAChE Inhibition IC50; cited from earlier work
T1 construct: purchased type VI-S

Aβ1–42 = molecular target: T2, Aβ1–42 (Homo sapiens, UniProt P05067); parameters: method as in PMID 32171933; conditions: footnote e; cited from earlier work
T2 construct: Aβ1–42 (40 μM) was incubated at 37 °C, for 24 h with or without Cu(II) (40 μM)

Aβ1–42 with Cu(II) = molecular target: T3, Aβ1–42 with Cu(II) (Homo sapiens, UniProt P05067); parameters: method as in PMID 32171933; conditions: copper 40 µM; footnote e; cited from earlier work
T3 construct: Aβ1–42 (40 μM) was incubated at 37 °C, for 24 h with or without Cu(II) (40 μM)

[3] = 50% w/w DMSO/water, I = 0.1 M KCl, 25.0 °C; cited from earlier work
[4] = pH 7.4, CL/CM = 10, CM = 10^−6 M; cited from earlier work

T2 sequence (P05067 672-713): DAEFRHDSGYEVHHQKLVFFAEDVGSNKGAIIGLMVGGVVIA
T3 sequence (P05067 672-713): as above
T1 sequence (O42275 24-633): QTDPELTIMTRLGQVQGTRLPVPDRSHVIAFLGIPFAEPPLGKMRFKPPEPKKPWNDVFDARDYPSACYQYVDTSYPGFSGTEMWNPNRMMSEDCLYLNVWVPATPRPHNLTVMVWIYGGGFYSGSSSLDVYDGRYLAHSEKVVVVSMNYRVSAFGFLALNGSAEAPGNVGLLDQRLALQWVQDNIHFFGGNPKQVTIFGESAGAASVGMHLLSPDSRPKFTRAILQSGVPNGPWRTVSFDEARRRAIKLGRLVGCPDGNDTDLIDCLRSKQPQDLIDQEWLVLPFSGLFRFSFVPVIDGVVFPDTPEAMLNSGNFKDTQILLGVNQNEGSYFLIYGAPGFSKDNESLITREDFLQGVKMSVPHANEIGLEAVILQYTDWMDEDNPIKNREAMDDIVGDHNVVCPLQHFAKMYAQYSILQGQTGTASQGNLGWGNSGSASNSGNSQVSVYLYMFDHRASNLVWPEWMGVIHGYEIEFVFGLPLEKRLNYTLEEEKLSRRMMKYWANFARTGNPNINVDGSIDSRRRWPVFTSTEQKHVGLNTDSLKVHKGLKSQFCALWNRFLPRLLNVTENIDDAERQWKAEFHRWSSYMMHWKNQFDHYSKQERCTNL

## O=C(NCC1CCN(Cc2ccccc2)CC1)c1ccc2nc(-c3ccccc3O)[nH]c2c1 [Compound 1]
[1]
  Kd: 34 nM
[2]
  IC50: 4200 ± 800 nM
Aβ1–42
  Aβ1–42 Aggregation Inhibition, Self-Induced: 48.8 ^e %
Aβ1–42 with Cu(II)
  Aβ1–42 Aggregation Inhibition, Cu-Induced: 69.0 ^e %
[3]
  log K1, stepwise protonation constant (011): 8.671(1)
  log K2, stepwise protonation constant (021): 7.39(1)
  log K3, stepwise protonation constant (031): 3.21(1)
[4]
  pZn (pM = −log[M]): 6.3
